# In patent publication US9067923B2, “Substituted quinoxalines” (Kyowa Hakko Kirin Co., Ltd., priority 2011, dated 2015):
# Tested on: production of kynurenine in human gastric cancer cell line KATO-III
# Experiment: Inhibitory activity on the production of kynurenine (IFN-γ-treated KATO-III cells)
# Type: cell-based
# Settings: 10 μmol/L test compound, KATO-III cells treated with IFN-γ, 96 hours
# Protocol: This assay was performed by a modification of the method described in J. Biol. Chem., vol. 263, pp. 2041-2048 ([…]). For culture of the human gastric cancer cell line […], RPMI 1640 (GIBCO, 11875) supplemented with 10 vol % FBS (GIBCO, 10091-148, lot. 665285) was used. One μL of a test substance in a DMSO solution was diluted with 199 μL of the culture medium and placed in wells of a 384-well plate (10 μL/well). Next, IFN-γ (Sigma, I-3265) was added to a fresh culture medium to a concentration of 31.25 ng/mL, and KATO-III cells were suspended at 50,000 cells/mL in the culture medium. Forty μL of the suspension was added to each well (2,000 cells/well) and cultured under 5% CO2 at 37° C. for 96 hours. The final concentration of DMSO was limited to 0.1 vol % or less so that DMSO itself may not affect the kynurenine concentration measured in this assay. After the culture, 10 μL of a 30 w/v % aqueous trichloroacetic acid solution was added to each well, and incubation was performed at 65° C. for 30 minutes. The plate was centrifruged at 2,500×g for 5 minutes and 15 μL of the supernatant in each well was transferred into another 384-well plate. To the transferred supernatant, 15 μL of a 2 w/v % solution of p-dimethylaminobenzaldehyde in acetic acid was added, incubation was performed at 65° C. for 20 minutes and the absorbance was measured at 480 nm.
# Sample: the absorbance value of the well to which DMSO solution containing a test substance was added and in which the cells were treated with IFN-γ.
# Blank: the absorbance value of the well to which DMSO not containing a test substance was added and in which the cells were treated with IFN-γ.
# Control: the absorbance value of the well to which DMSO not containing a test substance was added and in which the cells were not treated with IFN-γ.
# The inhibition % of each test compound was calculated by formula A1.
# In this assay, the expression of IDO in KATO-III cells is induced by IFN-γ treatment, and kynurenine in the culture medium is quantified. The kynurenine concentration in a culture medium is known to increase in proportion to the enzymatic activity of intracellular IDO (for example, J. Biol. Chem., vol. 263, pp. 2041-2048 (1988)). […] The production of kynurenine is known to be inhibited by IDO inhibitors (for example, J. Clin. Invest., vol. 117, No. 5, pp. 1147-1154 ([…])), and thus it is speculated that compounds (I) also have an inhibitory effect on IDO.
row,SMILES,inhibition at 10 µM
1,"CCCS(=O)(=O)Nc1nc2ccccc2nc1OC(C1CCN(c2cc(C(=O)N(C)C)ccn2)CC1)C(F)(F)F (centres unmarked) [Compound 1, N,N-dimethyl-2-(4-(2,2,2-trifluoro-1-(3-(propylsulfonamido)quinoxalin-2-yloxy)ethyl)piperidin-1-yl)isonicotinamide]",≥ 80%
2,"CCCS(=O)(=O)Nc1nc2ccccc2nc1OC(C1CCN(c2ncccc2C(=O)N(C)C)CC1)C(F)(F)F (centres unmarked) [Compound 2, N,N-dimethyl-2-(4-(2,2,2-trifluoro-1-(3-(propylsulfonamido)quinoxalin-2-yloxy)ethyl)piperidin-1-yl)nicotinamide]",≥ 80%
3,"CCCS(=O)(=O)Nc1nc2ccccc2nc1OC(C1CCN(c2cccc(C(=O)N(C)C)n2)CC1)C(F)(F)F (centres unmarked) [Compound 3, N,N-dimethyl-6-(4-(2,2,2-trifluoro-1-(3-(propylsulfonamido)quinoxalin-2-yloxy)ethyl)piperidin-1-yl)picolinamide]",≥ 80%
4,"CCCS(=O)(=O)Nc1nc2ccccc2nc1OC(C1CCN(c2ccc(C(N)=O)nc2)CC1)C(F)(F)F (centres unmarked) [Compound 5, 5-(4-(2,2,2-trifluoro-1-(3-(propylsulfonamido)quinoxalin-2-yloxy)ethyl)piperidin-1-yl)picolinamide]",≥ 80%
5,"CCCS(=O)(=O)Nc1nc2ccccc2nc1OC(C1CCN(c2cc(C#N)ccn2)CC1)C(F)(F)F (centres unmarked) [Compound 6, N-(3-(1-(1-(4-cyanopyridin-2-yl)piperidin-4-yl)-2,2,2-trifluoroethoxy)quinoxalin-2-yl)propane-1-sulfonamide]",≥ 80%
6,"CCCS(=O)(=O)Nc1nc2ccccc2nc1OC(C1CCN(c2cncc(C#N)c2)CC1)C(F)(F)F (centres unmarked) [Compound 7, N-(3-(1-(1-(5-cyanopyridin-3-yl)piperidin-4-yl)-2,2,2-trifluoroethoxy)quinoxalin-2-yl)propane-1-sulfonamide]",≥ 80%
7,"CCCS(=O)(=O)Nc1nc2ccccc2nc1OC(C1CCN(c2ccc(C(=O)N(C)C)cn2)CC1)C(F)(F)F (centres unmarked) [Compound 8, N,N-dimethyl-6-(4-(2,2,2-trifluoro-1-(3-(propylsulfonamido)quinoxalin-2-yloxy)ethyl)piperidin-1-yl)nicotinamide]",≥ 80%
8,"CCCS(=O)(=O)Nc1nc2ccccc2nc1OC(C1CCN(c2ncccc2C#N)CC1)C(F)(F)F (centres unmarked) [Compound 9, N-(3-(1-(1-(3-cyanopyridin-2-yl)piperidin-4-yl)-2,2,2-trifluoroethoxy)quinoxalin-2-yl)propane-1-sulfonamide]",≥ 80%
9,"CCCS(=O)(=O)Nc1nc2ccccc2nc1OC(C1CCN(c2ncccc2C(N)=O)CC1)C(F)(F)F (centres unmarked) [Compound 10, 2-(4-(2,2,2-trifluoro-1-(3-(propylsulfonamido)quinoxalin-2-yloxy)ethyl)piperidin-1-yl)nicotinamide]",≥ 80%
10,"CCCS(=O)(=O)Nc1nc2ccccc2nc1OC(C1CCN(c2nnnn2C)CC1)C(F)(F)F (centres unmarked) [Compound 12, N-(3-(2,2,2-trifluoro-1-(1-(1-methyl-1H-tetrazol-5-yl)piperidin-4-yl)ethoxy)quinoxalin-2-yl)propane-1-sulfonamide]",≥ 80%
11,"CCCS(=O)(=O)Nc1nc2ccccc2nc1OC(C1CCN(c2cnccn2)CC1)C(F)(F)F (centres unmarked) [Compound 13, N-(3-(2,2,2-trifluoro-1-(1-(pyrazin-2-yl)piperidin-4-yl)ethoxy)quinoxalin-2-yl)propane-1-sulfonamide]",≥ 80%
12,"CCCS(=O)(=O)Nc1nc2ccccc2nc1OC(C1CCN(c2cncnc2)CC1)C(F)(F)F (centres unmarked) [Compound 14, N-(3-(2,2,2-trifluoro-1-(1-(pyrimidin-5-yl)piperidin-4-yl)ethoxy)quinoxalin-2-yl)propane-1-sulfonamide]",≥ 80%
13,"CCCS(=O)(=O)Nc1nc2ccccc2nc1OC(C1CCN(c2ccc(C#N)cn2)CC1)C(F)(F)F (centres unmarked) [Compound 15, N-(3-(1-(1-(5-cyanopyridin-2-yl)piperidin-4-yl)-2,2,2-trifluoroethoxy)quinoxalin-2-yl)propane-1-sulfonamide]",≥ 80%
14,"CCCS(=O)(=O)Nc1nc2ccccc2nc1OC(C1CCN(c2ccnc(C#N)c2)CC1)C(F)(F)F (centres unmarked) [Compound 16, N-(3-(1-(1-(2-cyanopyridin-4-yl)piperidin-4-yl)-2,2,2-trifluoroethoxy)quinoxalin-2-yl)propane-1-sulfonamide]",≥ 80%
15,"CCCS(=O)(=O)Nc1nc2ccccc2nc1OC(C1CCN(c2ccncc2C#N)CC1)C(F)(F)F (centres unmarked) [Compound 17, N-(3-(1-(1-(3-cyanopyridin-4-yl)piperidin-4-yl)-2,2,2-trifluoroethoxy)quinoxalin-2-yl)propane-1-sulfonamide]",≥ 80%
16,"CCCS(=O)(=O)Nc1nc2ccccc2nc1OC(C1CCN(c2nccs2)CC1)C(F)(F)F (centres unmarked) [Compound 18, N-(3-(2,2,2-trifluoro-1-(1-(thiazol-2-yl)piperidin-4-yl)ethoxy)quinoxalin-2-yl)propane-1-sulfonamide]",≥ 80%
17,"CCCS(=O)(=O)Nc1nc2ccccc2nc1OC(C1CCN(c2ccc(C(N)=O)cn2)CC1)C(F)(F)F (centres unmarked) [Compound 19, 6-(4-(2,2,2-trifluoro-1-(3-(propylsulfonamido)quinoxalin-2-yloxy)ethyl)piperidin-1-yl)nicotinamide]",≥ 80%
18,"CCCS(=O)(=O)Nc1nc2ccccc2nc1OC(C1CCN(c2ccccn2)CC1)C(F)(F)F (centres unmarked) [Compound 20, N-(3-(2,2,2-trifluoro-1-(1-(pyridin-2-yl)piperidin-4-yl)ethoxy)quinoxalin-2-yl)propane-1-sulfonamide]",≥ 80%
19,"CCCS(=O)(=O)Nc1nc2ccccc2nc1OC(C1CCN(c2cccnc2)CC1)C(F)(F)F (centres unmarked) [Compound 21, N-(3-(2,2,2-trifluoro-1-(1-(pyridin-3-yl)piperidin-4-yl)ethoxy)quinoxalin-2-yl)propane-1-sulfonamide]",≥ 80%
20,"COCCS(=O)(=O)Nc1nc2ccccc2nc1OC(c1ccc(-c2noc(C3CC3)n2)nc1)C(F)(F)F (centres unmarked) [Compound 23, N-(3-(1-(6-(5-cyclopropyl-1,2,4-oxadiazol-3-yl)pyridin-3-yl)-2,2,2-trifluoroethoxy)quinoxalin-2-yl)-2-methoxyethanesulfonamide]",≥ 80%
21,"CCCS(=O)(=O)Nc1nc2ccccc2nc1OC(c1ccc(-c2noc(COC)n2)nc1)C(F)(F)F (centres unmarked) [Compound 26, N-(3-(2,2,2-trifluoro-1-(6-(5-(methoxymethyl)-1,2,4-oxadiazol-3-yl)pyridin-3-yl)ethoxy)quinoxalin-2-yl)propane-1-sulfonamide]",≥ 80%
22,"CCCS(=O)(=O)Nc1nc2ccccc2nc1O[C@H](c1cnc(C(C)=O)s1)C(F)(F)F [Compound 32, (S)-N-(3-(1-(2-acetylthiazol-5-yl)-2,2,2-trifluoroethoxy)quinoxalin-2-yl)propane-1-sulfonamide]",≥ 80%
23,"CCCS(=O)(=O)Nc1nc2ccccc2nc1O[C@H](C1CCN(c2ccc(C(N)=O)nc2)CC1)C(F)(F)F [Compound 34, (R)-5-(4-(2,2,2-trifluoro-1-(3-(propylsulfonamido)quinoxalin-2-yloxy)ethyl)piperidin-1-yl)picolinamide]",≥ 80%
